Patent US12435112B2, “Adenovirus comprising a modified adenovirus hexon protein” (UNIVERSITÄT ULM, priority 2019, dated 2025)

System: MSCs
Experiment: Transduction of MSCs with or without enhancing molecules
Assay type: cell-based, human
Conditions: enhancer pre-incubated with adenovirus
Method: Transduction of MSCs by HAdV5 or HAdV5-Mut3, with or without Enhancing Molecules
MSCs were seeded in 1 mL PL-containing BioWhittaker® Alpha minimum essential medium (Lonza) in 24-well plates. The next day, the indicated viral vector particles were pre-incubated with or without enhancing molecules for 30 minutes at 37° C. in a total volume of 300 μL in PL-free medium. As enhancing molecules, Factor X (250-2000 ng/mL), Spermidine (1-625 ng/μL), Spermine (1-1000 ng/μL), Polybrene (0.08-81 μg/μL), Poly-L-Lysine (1-25% v/v) and Lactoferrin (1-1000 μg/mL) were used. Subsequently, MSCs were washed and 500 μL PL-free medium was provided. Cells were transduced by adding 300 μL of the pre-incubated viral particles (resulting in the indicated pMOI) and incubated for 2 hours at 37° C. Afterwards, cells were washed, and 1 mL of PL-containing medium was added. 72 hours after transduction, MSCs were detached and eGFP expression was analyzed by flow cytometry.
Amount of Enhancers Used for Pre-Incubation of HAdV5:
Transduction of MSCs by HAdV5, HAdV5-Mut3, HAdV5-ΔCAR-Mut3, HAdV5-ΔHVR1 or HAdV5-Mut2
Transduction of MSCs with a pMOI of 1000 was performed as described in section “Transduction of MSCs by HAdV5 or HAdV5-Mut3, with or without enhancing molecules”, except that MSCs were detached and eGFP expression was analyzed by flow cytometry 24 hours after transduction. No enhancing molecules were used.

Compound	enhanced transduction of MSCs with adenoviruses by transduction enhancer
NCCCCNCCCN [Spermidine]	most pronounced
NCCCNCCCCNCCCN [Spermine]	most pronounced
